Source: patent US9439422B2, “Use of macrocyclic picolinamides as fungicides” (DOW AGROSCIENCES LLC, priority 2013, dated 2016)
Read-outs that look alike come from different tables or passages of the source.

Columns and labels:
[1] = tested on: Puccinia triticina; Synonym: Puccinia recondite f. sp. tritici; assay: Wheat Brown Rust (PUCCRT) disease control on wheat seedlings; type: in vivo; conditions: for pest or weed control at 100 ppm: rate 100 ppm; for pest or weed control at 121.5 g/ha: rate 121.5 g/H
Method: Technical grades of materials were dissolved in acetone, which were then mixed with nine volumes of water containing 110 ppm Triton X-100. The fungicide solutions were applied onto wheat seedlings using an automated booth sprayer to run-off. All sprayed plants were allowed to air dry prior to further handling. All fungicides were evaluated using the aforementioned method for their activity vs. all target diseases. Wheat leaf blotch and brown rust activity were also evaluated using track spray applications, in which case the fungicides were formulated as EC formulations, containing 0.1% Trycol 5941 in the spray solutions. Wheat plants (variety Yuma) were grown from seed in a greenhouse in 50% mineral soil/50% soil-less Metro mix until the first leaf was fully emerged, with 7-10 seedlings per pot. These plants were inoculated with an aqueous spore suspension of Septoria tritici either prior to or after fungicide treatments. After inoculation the plants were kept in 100% relative humidity (one day in a dark dew chamber followed by two to three days in a lighted dew chamber at 20° C.) to permit spores to germinate and infect the leaf. The plants were then transferred to a greenhouse set at 20° C. for disease to develop. When disease symptoms were fully expressed on the 1st leaves of untreated plants, infection levels were assessed on a scale of 0 to 100 percent disease severity. Percent disease control was calculated using the ratio of disease severity on treated plants relative to untreated plants. Evaluation of Fungicidal Activity: Wheat Brown Rust (Puccinia triticina; Synonym: Puccinia recondite f. sp. tritici; Bayer Code PUCCRT) Wheat plants (variety Yuma) were grown from seed in a greenhouse in 50% mineral soil/50% soil-less Metro mix until the first leaf was fully emerged, with 7-10 seedlings per pot. These plants were inoculated with an aqueous spore suspension of Puccinia triticina either prior to or after fungicide treatments. After inoculation the plants were kept in a dark dew room at 22° C. with 100% relative humidity overnight to permit spores to germinate and infect the leaf. The plants were then transferred to a greenhouse set at 24° C. for disease to develop. Fungicide formulation, application and disease assessment followed the procedures as described in the Example A.

[2] = tested on: Mycosphaerella graminicola; Anamorph: Septoria tritici; assay: Leaf Blotch of Wheat (SEPTTR) disease control on wheat seedlings; type: in vivo; conditions: Zymoseptoria tritici; for pest or weed control at 100 ppm: rate 100 ppm; for pest or weed control at 121.5 g/ha: rate 121.5 g/H
Method: Evaluation of Fungicidal Activity: Leaf Blotch of Wheat (Mycosphaerella graminicola; Anamorph: Septoria tritici; Bayer Code […]) Technical grades of materials were dissolved in acetone, which were then mixed with nine volumes of water containing 110 ppm Triton X-100. The fungicide solutions were applied onto wheat seedlings using an automated booth sprayer to run-off. All sprayed plants were allowed to air dry prior to further handling. All fungicides were evaluated using the aforementioned method for their activity vs. all target diseases. Wheat leaf blotch and brown rust activity were also evaluated using track spray applications, in which case the fungicides were formulated as EC formulations, containing 0.1% Trycol 5941 in the spray solutions. Wheat plants (variety Yuma) were grown from seed in a greenhouse in 50% mineral soil/50% soil-less Metro mix until the first leaf was fully emerged, with 7-10 seedlings per pot. These plants were inoculated with an aqueous spore suspension of Septoria tritici either prior to or after fungicide treatments. After inoculation the plants were kept in 100% relative humidity (one day in a dark dew chamber followed by two to three days in a lighted dew chamber at 20° C.) to permit spores to germinate and infect the leaf. The plants were then transferred to a greenhouse set at 20° C. for disease to develop. When disease symptoms were fully expressed on the 1st leaves of untreated plants, infection levels were assessed on a scale of 0 to 100 percent disease severity. Percent disease control was calculated using the ratio of disease severity on treated plants relative to untreated plants.

[3] = 24 h, 1 Day Protectant, read-out: PUCCRT disease control, 1DP
[4] = 72 h, 3 Day Curative, read-out: PUCCRT disease control, 3DC
[5] = 24 h, 1 Day Protectant, read-out: SEPTTR disease control, 1DP
[6] = 72 h, 3 Day Curative, read-out: SEPTTR disease control, 3DC

CCOCC(=O)OCOc1c(OC)ccnc1C(=O)N[C@H]1COC[C@H](CC2CCCC2)[C@@H](OCC(C)C)[C@H](C)OC1=O [Compound F121]
pest or weed control at 100 ppm [1, 3]: 80 to 100%
pest or weed control at 121.5 g/ha [1, 3]: 80 to 100%
pest or weed control at 100 ppm [1, 4]: 80 to 100%
pest or weed control at 121.5 g/ha [1, 4]: 80 to 100%
pest or weed control at 100 ppm [2, 5]: 80 to 100%
pest or weed control at 121.5 g/ha [2, 5]: 80 to 100%
pest or weed control at 100 ppm [2, 6]: 80 to 100%
pest or weed control at 121.5 g/ha [2, 6]: 80 to 100%

COc1ccnc(C(=O)N[C@H]2COC[C@H](Cc3ccc(C(F)(F)F)cc3)[C@@H](OC(=O)C(C)C)[C@H](C)OC2=O)c1O [Compound F30]
pest or weed control at 100 ppm [1, 3]: 80 to 100%
pest or weed control at 100 ppm [2, 5]: 80 to 100%
pest or weed control at 100 ppm [2, 6]: 0 to 80%
